From patent US7018813B2 (priority 2000, dated 2006)
Read-outs that look alike come from different tables or passages of the source.

What was measured:
[1] = at 25° C.; cited from earlier work
[2] = cited from earlier work
[3] = test system: B. pertussis strain ATCC 9797 or CS87; type: cell-based, Bordetella pertussis

With O=S(=O)([O-])[O-].[Ag+].[Ag+] [AgSO4] as the compound, how does the Ksp [1] read?
The Ksp was 1.19 × 10^−5.

With O=S(=O)([O-])[O-].[Pb+2] [PbSO4] as the compound, how does the Ksp [1] read?
Its Ksp is 1.82 × 10^−8.

For O=S(=O)([O-])[O-].[Sr+2] [SrSO4], which Ksp [1] is on record?
The Ksp was 3.42 × 10^−7.

For BaSO4, which solubility in water ([2]; at 25° C.) is on record?
The solubility in water was 10.7 µM.

What about the solubility in water ([2]; at 100° C.) of the same compound?
The solubility in water was 17.7 µM.

And the Ksp [1]?
The Ksp was 1.05 × 10^−10.

Which “amount of PT” value [3] does the source give for Barium chloride [BaCl2] here?
Its value is 0.525 μg/mL/OD650.
